Measured values reported in ChEMBL document CHEMBL5543073, “Synthesis, biological activity evaluation and mechanism analysis of new ganglioside GM3 derivatives as potential agents for nervous functional recovery” (Eur J Med Chem, 2024).
Activity calls are given as the source filed them. The rule behind the calls is not given here.

Experiments:
[1] = test system: Neuron; assay: Induction of neurite growth in mouse primary neurons at 50 uM incubated for 48 hrs in presence of NGF by imaging analysis; format: functional, cell-based
[2] = test system: N2a; assay: Induction of cell proliferation in mouse Neuro2a cells at 50 uM incubated for 48 hrs by CCK8 assay; format: functional, cell-based
[3] = test system: SH-SY5Y; assay: Neuroprotective effect against MPP+-induced cytotoxicity in human SH-SY5Y cells assessed as increase in cell viability at 50 uM incubated for 24 hrs followed by MPP+ addition measured after 4 hrs by CCK8 assay relative to control; format: functional; settings: time 28 hrs
[4] = test system: Neuron; assay: Induction of neurite growth in mouse primary neurons assessed as increase in MAP2 level incubated for 48 hrs in presence of NGF by Western blot analysis; format: functional, cell-based
[5] = test system: PC-12; assay: Cytotoxicity against rat PC12 cells assessed as inhibition of cell viability incubated for 48 hrs by CCK8 assay; format: functional, cell-based; settings: PC-12, 48 h
[6] = test system: N2a; assay: Downregulation of Wnt7b level in mouse Neuro2a cells at 50 uM incubated for 48 hrs by Western blot analysis; format: functional, cell-based
[7] = test system: N2a; assay: Effect on […] level in mouse Neuro2a cells at 50 uM incubated for 48 hrs by Western blot analysis; format: functional, cell-based
[8] = test system: U-87 MG; assay: Cytotoxicity against human U-87 MG cells assessed as inhibition of cell viability incubated for 48 hrs by CCK8 assay; format: functional, cell-based, U-87MG ATCC
[9] = test system: N2a; assay: Cytotoxicity against mouse Neuro2a cells assessed as inhibition of cell viability incubated for 48 hrs by CCK8 assay; format: functional, cell-based
[10] = Half life in C57BL/6 mouse at 10 mg/kg, iv measured for 24 hrs; format: ADME, organism-based; settings: in vivo
[11] = Clearance in C57BL/6 mouse at 10 mg/kg, iv measured for 24 hrs; format: ADME, organism-based; settings: in vivo
[12] = test system: SH-SY5Y; assay: Cytotoxicity against human SH-SY5Y cells assessed as inhibition of cell viability incubated for 48 hrs by CCK8 assay; format: functional, cell-based
[13] = test system: A-431; assay: Effect on Rac2 gene expression in human A-431 cells by RNA-Seq analysis; format: functional, cell-based
[14] = test system: A-431; assay: Effect on Wnt7b gene expression in human A-431 cells by RNA-Seq analysis; format: functional, cell-based
[15] = test system: Neuron; assay: Induction of neurite growth in mouse primary neurons assessed as increase in neurite length at 50 uM incubated for 48 hrs by imaging analysis; format: functional, cell-based

half-life [10] [h]	CL [11] [µL/min/mg]	SMILES	Activity [1]	Activity [2]	Activity [3] [%]	Activity [4]	IC50 [5] [µM]	Activity [6]	Activity [7]	IC50 [8] [µM]	IC50 [9] [µM]	IC50 [12] [µM]	Activity [13]	Activity [14]	Activity [15]
49.3	0.467	CCCCCCCCCCCCC/C=C/[C@@H](O)[C@H](CO[C@@H]1O[C@H](CO)[C@@H](O[C@@H]2O[C@H](CO)[C@H](O)[C@H](O[C@]3(C(=O)O)C[C@H](O)[C@@H](NC(=O)Cc4cccc([N+](=O)[O-])c4)C([C@@H](O)[C@H](O)CO)O3)[C@H]2O)[C@H](O)[C@H]1O)NC(=O)CCCCCCCCCCCCCCCCC (some centres not stated)	Active	Active	18.8	Active	> 200	Active	inactive	> 200	> 200	> 200	Active	Active	Active
–	–	CCCCCCCCCCCCC/C=C/[C@@H](O)[C@H](CO[C@@H]1O[C@H](CO)[C@@H](O[C@@H]2O[C@H](CO)[C@H](O)[C@H](O[C@]3(C(=O)O)C[C@H](O)[C@@H](NC(=O)Cc4ccc(Br)cc4)C([C@@H](O)[C@H](O)CO)O3)[C@H]2O)[C@H](O)[C@H]1O)NC(=O)CCCCCCCCCCCCCCCCC (some centres not stated)	–	–	–	–	> 200	–	–	> 200	> 200	> 200	–	–	–
–	–	CCCCCCCCCCCCC/C=C/[C@@H](O)[C@H](CO[C@@H]1O[C@H](CO)[C@@H](O[C@@H]2O[C@H](CO)[C@H](O)[C@H](O[C@]3(C(=O)O)C[C@H](O)[C@@H](NC(=O)Cc4ccc(C)cc4)C([C@@H](O)[C@H](O)CO)O3)[C@H]2O)[C@H](O)[C@H]1O)NC(=O)CCCCCCCCCCCCCCCCC (some centres not stated)	–	–	–	–	> 200	–	–	> 200	> 200	> 200	–	–	–
–	–	CCCCCCCCCCCCC/C=C/[C@@H](O)[C@H](CO[C@@H]1O[C@H](CO)[C@@H](O[C@@H]2O[C@H](CO)[C@H](O)[C@H](O[C@]3(C(=O)O)C[C@H](O)[C@@H](NC(=O)c4cc(C)cc(C)c4)C([C@@H](O)[C@H](O)CO)O3)[C@H]2O)[C@H](O)[C@H]1O)NC(=O)CCCCCCCCCCCCCCCCC (some centres not stated)	–	–	–	–	> 200	–	–	> 200	> 200	> 200	–	–	–
–	–	CCCCCCCCCCCCC/C=C/[C@@H](O)[C@H](CO[C@@H]1O[C@H](CO)[C@@H](O[C@@H]2O[C@H](CO)[C@H](O)[C@H](O[C@]3(C(=O)O)C[C@H](O)[C@@H](NC(=O)c4cccc([N+](=O)[O-])c4)C([C@@H](O)[C@H](O)CO)O3)[C@H]2O)[C@H](O)[C@H]1O)NC(=O)CCCCCCCCCCCCCCCCC (some centres not stated)	–	Active	9.3	–	> 200	–	–	> 200	> 200	> 200	–	–	–
–	–	CCCCCCCCCCCCC/C=C/[C@@H](O)[C@H](CO[C@@H]1O[C@H](CO)[C@@H](O[C@@H]2O[C@H](CO)[C@H](O)[C@H](O[C@]3(C(=O)O)C[C@H](O)[C@@H](NC(=O)c4ccncc4)C([C@@H](O)[C@H](O)CO)O3)[C@H]2O)[C@H](O)[C@H]1O)NC(=O)CCCCCCCCCCCCCCCCC (some centres not stated)	–	–	–	–	> 200	–	–	> 200	> 200	> 200	–	–	–
